How the values were obtained:
[1] = Substance compatibility in granulations: potency by HPLC, initially and after storage; format: physicochemical; conditions: for Potency NSAID, 2 Weeks Extreme Conditions: 2 weeks at 40° C. with 75% to 85% relative humidity; for Potency NSAID, 4 Weeks Extreme Conditions: 4 weeks at 40° C. with 75% to 85% relative humidity; for Potency NSAID, 19 Days RT: 19 days at room temperature; for Potency NSAID, 33 Days RT: 33 days at room temperature
Protocol: In this example, granulations of a PPI and various NSAIDs were prepared to determine the compatibility of these substances with each other in a granulated form.
The potency (mg/g) of each drug substance in each granulation was determined by HPLC.
Granulations A, C, and D, as well as naproxen and piroxicam drug substances were weighed and separately placed in scintillation vials and stored at room temperature (RT) and at 40° C. with 75% to 85% relative humidity (“Extreme Conditions”). Granulations A, C, and D, as well as the naproxen and piroxicam, were tested for potency of the lansoprazole and NSAID after 19 and 33 days at the room temperature conditions and after two and four weeks under the Extreme Conditions.

[2] = PPI/NSAID drug substance compatibility (storage stability of mixtures); format: physicochemical
Protocol: Various NSAIDs were combined with lansoprazole with and without a buffer to determine the compatibility of the components. The various mixtures were placed at room temperature and 40° C. with 75% relative humidity. The samples were tested initially and after two weeks at the storage conditions above. The results are reported in Table 1 below as a percent of the theoretical amount of a given component.

Potency NSAID, 2 Weeks Extreme Conditions [1]	Potency NSAID, 4 Weeks Extreme Conditions [1]	Potency NSAID, 19 Days RT [1]	Potency NSAID, 33 Days RT [1]	% of Theory, lansoprazole, Initial ([2]; initial, percent of theoretical amount of lansoprazole)	% of Theory, lansoprazole, 40° C. 75% humidity ([2]; two weeks at 40° C. with 75% relative humidity)	% of Theory, lansoprazole, Room Temp. ([2]; two weeks at room temperature)	SMILES
NA/942.2 mg/g	NA/1005.5 mg/g	NA/1027.1 mg/g	NA/998.5 mg/g	–	–	–	CN1C(C(=O)Nc2ccccn2)=C(O)c2ccccc2S1(=O)=O [Piroxicam, piroxicam]
NA/996.7 mg/g	NA/1000.9 mg/g	NA/997.2 mg/g	NA/998.2 mg/g	–	–	–	COc1ccc2cc([C@H](C)C(=O)O)ccc2c1 [Naproxen, naproxen]
–	–	–	–	100.8/NA %	99.1/NA %	99.1/NA %	Cc1c(OCC(F)(F)F)ccnc1C[S+]([O-])c1nc2ccccc2[nH]1 (centres unmarked) [Lansoprazole, lansoprazole]

Source: patent US20040121004A1, “Dosage forms containing a PPI, NSAID, and buffer” (priority 2002, published 2004)
